{"source": "patent US10086085B2", "about": "“Bifunctional cytotoxic agents” (priority 2014, dated 2018)", "key": {"[1]": {"tested_on": "N87 (human gastric carcinoma derived from metastatic liver site)", "experiment": "Cytotoxicity assay for payloads (MTS), N87 cells", "assay_type": "cell-based", "settings": "Homo sapiens, 96 h; N87 cells, incubated with compounds for four days, MTS absorbance 490 nm; read-out: N87 IC50", "experimental": "(§1) Cancer cell lines were obtained from ATCC (Manassas, Va.). N87 (human gastric carcinoma derived from metastatic liver site). HL60 (leukemia), A375 (melanoma) and HUVEC (human umbilical vein endothelial cells). were grown in RPMI 1640 media. All media were supplemented with 10% fetal bovine serum, 1% sodium pyruvate, and 1% L-glutamine (Invitrogen, Grand Island, N.Y.). Human umbilical vein endothelial cells (HUVEC) were obtained from Lonza (Allendale, N.J.) and maintained in EGM2 media supplemented with EGM-2 SingleQuots (Lonza # CC-4176). All cells were maintained in a humidified incubator (37° C., 5% CO2).\n(§2) Cells in 100 μl medium were cultured in a 96-well plate. Cancer cell lines treated with the indicated compounds by adding 50 μl of 3× stocks in duplicate at 10 concentrations. Cells were incubated with compounds for four days, then 30 μl of CellTiter® 96 AQueous One MTS Solution (Promega Cat # G3582) was added to the cells, incubated 1.5 hr at 37° C., then absorbance measured at 490 nm on a Victor plate reader (Perkin Elmer, Waltham, Mass.). Relative cell viability was determined as a percentage of untreated control wells. IC50 values were calculated using four parameter logistic model #203 with XLfit v4.2 (IDBS, Guildford, Surry, UK)."}, "[2]": {"tested_on": "HL60 (leukemia)", "experiment": "Cytotoxicity assay for payloads (MTS), HL-60 cells", "assay_type": "cell-based", "settings": "Homo sapiens, 96 h, incubated with compounds for four days, MTS absorbance 490 nm", "experimental": "as §1, §2"}}}
{"smiles": "CC(=O)Nc1ccc2c(OC(C)=O)cc3c(c2c1)[C@@H](CCl)CN3C(=O)C12CC(C(=O)N3C[C@@H](CCl)c4c3cc(OC(C)=O)c3ccccc43)(C1)C2", "note": "[Compound 108, (1R)-8-(acetylamino)-3-[(3-{[(1S)-5-(acetyloxy)-1-(chloromethyl)-1,2-dihydro-3H-benzo[e]indol-3-yl]carbonyl}bicyclo[1.1.1]pent-1-yl)carbonyl]-1-(chloromethyl)-1,2-dihydro-3H-benzo[e]indol-5-yl acetate]", "values": [{"measurement": "IC50", "setting": "[1]", "value": 3980, "unit": "pM"}, {"measurement": "IC50", "setting": "[2]", "value": 431, "unit": "pM"}]}
{"smiles": "CC(=O)Nc1ccc2c(OC(C)=O)cc3c(c2c1)[C@H](CCl)CN3C(=O)C12CC(C(=O)N3C[C@@H](CCl)c4c3cc(OC(C)=O)c3ccccc43)(C1)C2", "note": "[Compound 109, (1S)-3-[(3-{[(1S)-8-(acetylamino)-5-(acetyloxy)-1-(chloromethyl)-1,2-dihydro-3H-benzo[e]indol-3-yl]carbonyl}bicyclo[1.1.1]pent-1-yl)carbonyl]-1-(chloromethyl)-2,3-dihydro-1H-benzo[e]indol-5-yl acetate]", "values": [{"measurement": "IC50", "setting": "[1]", "value": 2300, "unit": "pM"}, {"measurement": "IC50", "setting": "[2]", "value": 95, "unit": "pM"}]}
{"smiles": "CC(=O)Oc1cc2c(c3ccccc13)[C@H](CCl)CN2C(=O)c1ccc(C(=O)N2C[C@@H](CCl)c3c2cc(N)c2ccccc32)s1", "note": "[Compound 115, Acetic acid (S)-3-[5-((S)-5-amino-1-chloromethyl-1,2-dihydro-benzo[e]indole-3-carbonyl)-thiophene-2-carbonyl]-1-chloromethyl-2,3-dihydro-1H-benzo[e]indol-5-yl ester]", "values": [{"measurement": "IC50", "setting": "[1]", "value": 1440, "unit": "pM"}, {"measurement": "IC50", "setting": "[2]", "value": 15, "unit": "pM"}]}
{"smiles": "Nc1cc2c(c3ccccc13)[C@H](CCl)CN2C(=O)C12CC(C(=O)N3C[C@@H](CCl)c4c3cc(N)c3ccccc43)(C1)C2", "note": "[Compound 130, bicyclo[1.1.1]pentane-1,3-diylbis{[(1S)-5-amino-1-(chloromethyl)-1,2-dihydro-3H-benzo[e]indol-3-yl]methanone}]", "values": [{"measurement": "IC50", "setting": "[1]", "value": 1800, "unit": "pM"}, {"measurement": "IC50", "setting": "[2]", "value": 227, "unit": "pM"}]}
{"smiles": "Cc1c[nH]c2c1[C@@]13C[C@@H]1CN(C(=O)C14CC(C(=O)N5C[C@H]6C[C@@]67C5=CC(=O)c5[nH]cc(C)c57)(C1)C4)C3=CC2=O", "note": "[Compound 135, (3bR,4aS,3b′R,4a′S)-6,6′-(bicyclo[1.1.1]pentane-1,3-diyldicarbonyl)bis(3-methyl-4,4a,5,6-tetrahydrocyclopropa[c]pyrrolo[3,2-e]indol-8(1H)-one)]", "values": [{"measurement": "IC50", "setting": "[1]", "value": 19, "unit": "pM"}, {"measurement": "IC50", "setting": "[2]", "value": 5, "unit": "pM"}]}
{"smiles": "O=C1C=C2N(C(=O)c3ccc(C(=O)N4C[C@H]5C[C@@]56C4=CC(=O)c4ccccc46)s3)C[C@H]3C[C@@]23c2ccccc21", "note": "[Compound 136, (1aS,9bR,1a′S,9b′R)-3,3′-(thiene-2,5-diyldicarbonyl)bis(1,1a,2,3-tetrahydro-5H-benzo[e]cyclopropa[c]indol-5-one)]", "values": [{"measurement": "IC50", "setting": "[1]", "value": 3, "unit": "pM"}, {"measurement": "IC50", "setting": "[2]", "value": 5, "unit": "pM"}]}
{"smiles": "COC(=O)[C@H]1O[C@@H](Oc2cc3c(c4ccccc24)[C@H](CCl)CN3C(=O)C23CC(C(=O)N4C[C@@H](CCl)c5c4cc(O)c4ccccc54)(C2)C3)[C@H](OC(C)=O)[C@@H](OC(C)=O)[C@@H]1OC(C)=O", "note": "[Compound 141, (1S)-1-(chloromethyl)-3-[(3-{[(1S)-1-(chloromethyl)-5-hydroxy-1,2-dihydro-3H-benzo[e]indol-3-yl]carbonyl}bicyclo[1.1.1]pent-1-yl)carbonyl]-2,3-dihydro-1H-benzo[e]indol-5-yl methyl 2,3,4-tri-O-acetyl-beta-D-glucopyranosiduronate]", "values": [{"measurement": "IC50", "setting": "[1]", "value": 12700, "unit": "pM"}, {"measurement": "IC50", "setting": "[2]", "value": 361, "unit": "pM"}]}
{"smiles": "CC(=O)Oc1cc2c(c3ccccc13)[C@H](CCl)CN2C(=O)c1sc(C(=O)N2C[C@@H](CCl)c3c2cc(OC(C)=O)c2ccccc32)c2c1OCCCO2", "note": "[Compound 142, 3,4-dihydro-2H-thieno[3,4-b][1,4]dioxepine-6,8-diylbis[carbonyl(1S)-1-(chloromethyl)-1,2-dihydro-3H-benzo[e]indole-3,5-diyl] diacetate]", "values": [{"measurement": "IC50", "setting": "[1]", "value": "≥ 100000", "unit": "pM"}, {"measurement": "IC50", "setting": "[2]", "value": "≥ 10000", "unit": "pM"}]}
{"smiles": "COc1c(C(=O)N2C[C@@H](CCl)c3c2cc(OC(C)=O)c2ccccc32)sc(C(=O)N2C[C@@H](CCl)c3c2cc(OC(C)=O)c2ccccc32)c1OC", "note": "[Compound 143, (3,4-dimethoxythiene-2,5-diyl)bis[carbonyl(1S)-1-(chloromethyl)-1,2-dihydro-3H-benzo[e]indole-3,5-diyl] diacetate]", "values": [{"measurement": "IC50", "setting": "[1]", "value": "≥ 100000", "unit": "pM"}, {"measurement": "IC50", "setting": "[2]", "value": "≥ 10000", "unit": "pM"}]}
{"smiles": "CC(=O)Oc1cc2c(c3ccccc13)[C@H](CCl)CN2C(=O)c1nnc(C(=O)N2C[C@@H](CCl)c3c2cc(OC(C)=O)c2ccccc32)s1", "note": "[Compound 144, 1,3,4-thiadiazole-2,5-diylbis[carbonyl(1S)-1-(chloromethyl)-1,2-dihydro-3H-benzo[e]indole-3,5-diyl] diacetate]", "values": [{"measurement": "IC50", "setting": "[1]", "value": "> 10000", "unit": "pM"}, {"measurement": "IC50", "setting": "[2]", "value": 3000, "unit": "pM"}]}
{"smiles": "O=C(c1ccc(C(=O)N2C[C@@H](CCl)c3c2cc(O[C@@H]2O[C@H](CO)[C@H](O)[C@H](O)[C@H]2O)c2ccccc32)s1)N1C[C@@H](CCl)c2c1cc(O)c1ccccc21", "note": "[Compound 145, ((S)-1-(chloromethyl)-5-(((2S,3R,4S,5R,6R)-3,4,5-trihydroxy-6-(hydroxymethyl)tetrahydro-2H-pyran-2-yl)oxy)-1,2-dihydro-3H-benzo[e]indol-3-yl)(5-((S)-1-(chloromethyl)-5-hydroxy-2,3-dihydro-1H-benzo[e]indole-3-carbonyl)thiophen-2-yl)methanone]", "values": [{"measurement": "IC50", "setting": "[1]", "value": 130, "unit": "pM"}, {"measurement": "IC50", "setting": "[2]", "value": 51, "unit": "pM"}]}
{"smiles": "Cc1c[nH]c2c(O)cc3c(c12)[C@H](CCl)CN3C(=O)C12CC(C(=O)N3C[C@@H](CCl)c4c3cc(O)c3[nH]cc(C)c43)(C1)C2", "note": "[Compound 147, bicyclo[1.1.1]pentane-1,3-diylbis{[(1S)-1-(chloromethyl)-5-hydroxy-8-methyl-1,6-dihydropyrrolo[3,2-e]indol-3(2H)-yl]methanone}]", "values": [{"measurement": "IC50", "setting": "[1]", "value": 17, "unit": "pM"}, {"measurement": "IC50", "setting": "[2]", "value": 3, "unit": "pM"}]}
{"smiles": "CC(=O)Oc1cc2c(c3ccccc13)[C@H](CCl)CN2C(=O)c1cc2cc(NC(=O)Nc3ccc4[nH]c(C(=O)N5C[C@@H](CCl)c6c5cc(OC(C)=O)c5ccccc65)cc4c3)ccc2[nH]1", "note": "[Compound 149, (1S)-3-[(5-{[(2-{[(1S)-5-(acetyloxy)-1-(chloromethyl)-1,2-dihydro-3H-benzo[e]indol-3-yl]carbonyl}-1H-indol-5-yl)carbamoyl]amino}-1H-indol-2-yl)carbonyl]-1-(chloromethyl)-1,2-dihydro-3H-benzo[e]indol-5-yl acetate]", "values": [{"measurement": "IC50", "setting": "[1]", "value": 132, "unit": "pM"}, {"measurement": "IC50", "setting": "[2]", "value": 7, "unit": "pM"}]}
{"smiles": "CC(=O)Oc1cc2c(c3ccccc13)[C@H](CCl)CN2C(=O)C12CC(C(=O)N3C[C@@H](CCl)c4c3cc(OC(C)=O)c3ccccc43)(C1)C2", "note": "[Compound 152, bicyclo[1.1.1]pentane-1,3-diylbis[carbonyl(1S)-1-(chloromethyl)-1,2-dihydro-3H-benzo[e]indole-3,5-diyl] diacetate]", "values": [{"measurement": "IC50", "setting": "[1]", "value": 278, "unit": "pM"}, {"measurement": "IC50", "setting": "[2]", "value": 8, "unit": "pM"}]}
{"smiles": "Cc1c[nH]c2c(O)cc3c(c12)[C@H](CCl)CN3C(=O)C12CC(C(=O)N3C[C@@H](CCl)c4c3cc(O)c3ccccc43)(C1)C2", "note": "[Compound 154, [(1S)-1-(chloromethyl)-5-hydroxy-1,2-dihydro-3H-benzo[e]indol-3-yl](3-{[(1S)-1-(chloromethyl)-5-hydroxy-8-methyl-1,6-dihydropyrrolo[3,2-e]indol-3(2H)-yl]carbonyl}bicyclo[1.1.1]pent-1-yl)methanone]", "values": [{"measurement": "IC50", "setting": "[1]", "value": 26, "unit": "pM"}, {"measurement": "IC50", "setting": "[2]", "value": 3, "unit": "pM"}]}
{"smiles": "CC(=O)Oc1cc2c(c3ccccc13)[C@H](CCl)CN2C(=O)CC1(CC(=O)N2C[C@@H](CCl)c3c2cc(OC(C)=O)c2ccccc32)CCC1", "note": "[Compound 156, cyclobutane-1,1-diylbis[(1-oxoethane-2,1-diyl)(1S)-1-(chloromethyl)-1,2-dihydro-3H-benzo[e]indole-3,5-diyl] diacetate]", "values": [{"measurement": "IC50", "setting": "[1]", "value": "≥ 10000", "unit": "pM"}, {"measurement": "IC50", "setting": "[2]", "value": 61100, "unit": "pM"}]}
{"smiles": "CC(=O)Oc1cc2c(c3ccccc13)[C@H](CCl)CN2C(=O)CC1(CC(=O)N2C[C@@H](CCl)c3c2cc(OC(C)=O)c2ccccc32)CCCC1", "note": "[Compound 157, cyclopentane-1,1-diylbis[(1-oxoethane-2,1-diyl)(1S)-1-(chloromethyl)-1,2-dihydro-3H-benzo[e]indole-3,5-diyl] diacetate]", "values": [{"measurement": "IC50", "setting": "[1]", "value": "≥ 10000", "unit": "pM"}, {"measurement": "IC50", "setting": "[2]", "value": 77400, "unit": "pM"}]}
{"smiles": "CC(=O)Oc1cc2c(c3ccccc13)[C@H](CCl)CN2C(=O)CC12CC(CC(=O)N3C[C@@H](CCl)c4c3cc(OC(C)=O)c3ccccc43)(C1)C2", "note": "[Compound 158, bicyclo[1.1.1]pentane-1,3-diylbis[(1-oxoethane-2,1-diyl)(1S)-1-(chloromethyl)-1,2-dihydro-3H-benzo[e]indole-3,5-diyl] diacetate]", "values": [{"measurement": "IC50", "setting": "[1]", "value": 14300, "unit": "pM"}, {"measurement": "IC50", "setting": "[2]", "value": 4910, "unit": "pM"}]}
{"smiles": "CC(=O)Oc1cc2c(c3ccccc13)[C@H](CCl)CN2C(=O)C12CCC(C(=O)N3C[C@@H](CCl)c4c3cc(OC(C)=O)c3ccccc43)(CC1)CC2", "note": "[Compound 159, bicyclo[2.2.2]octane-1,4-diylbis[carbonyl(1S)-1-(chloromethyl)-1,2-dihydro-3H-benzo[e]indole-3,5-diyl] diacetate]", "values": [{"measurement": "IC50", "setting": "[1]", "value": 2390, "unit": "pM"}, {"measurement": "IC50", "setting": "[2]", "value": 45, "unit": "pM"}]}
{"smiles": "Nc1cc2c(c3ccccc13)[C@H](CCl)CN2C(=O)C12CC(C(=O)N3C[C@@H](CCl)c4c3cc(OP(=O)(O)O)c3ccccc43)(C1)C2", "note": "[Compound 161, (1S)-3-[(3-{[(1S)-5-amino-1-(chloromethyl)-1,2-dihydro-3H-benzo[e]indol-3-yl]carbonyl}bicyclo[1.1.1]pent-1-yl)carbonyl]-1-(chloromethyl)-2,3-dihydro-1H-benzo[e]indol-5-yl dihydrogen phosphate]", "values": [{"measurement": "IC50", "setting": "[1]", "value": "≥ 10000", "unit": "pM"}, {"measurement": "IC50", "setting": "[2]", "value": 27200, "unit": "pM"}]}
